Assay results as given in BindingDB's records for doi:10.1021/jm500763m (Beijing Institute of Pharmacology & Toxicology, 2014).
Square brackets hold non-standard residues; d marks the D form. Peptide text beside a SMILES is read from it. * marks the point of attachment. X9 = C=CCOC(=O)[C@]12CC[C@@H](C)[C@H](C)[C@H]1C1=CC[C@@H]3[C@@]4(C)CC[C@H](OC(=O)CCc5cn(CC(=O)*)nn5)C(C)(C)[C@@H]4CC[C@@]3(C)[C@]1(C)CC2; X3 = C=C(C)[C@@H]1CC[C@]2(C(=O)O)CC[C@]3(C)[C@H](CC[C@@H]4[C@@]5(C)CC[C@H](OC(=O)CCc6cn(CC(=O)*)nn6)C(C)(C)[C@@H]5CC[C@]43C)[C@@H]12; X5 = C=C(C)[C@@H]1CC[C@]2(C(=O)OCc3cn(CC(=O)*)nn3)CC[C@]3(C)[C@H](CC[C@@H]4[C@@]5(C)CC[C@H](OC(C)=O)C(C)(C)[C@@H]5CC[C@]43C)[C@@H]12; X2 = C=CCOC(=O)[C@]12CCC(C)(C)C[C@H]1C1=CC[C@@H]3[C@@]4(C)CC[C@H](OC(=O)CCc5cn(CC(=O)*)nn5)C(C)(C)[C@@H]4CC[C@@]3(C)[C@]1(C)CC2; X4 = C=C(C)[C@@H]1CC[C@]2(C(=O)OCc3cn(CC(=O)*)nn3)CC[C@]3(C)[C@H](CC[C@@H]4[C@@]5(C)CC[C@H](O)C(C)(C)[C@@H]5CC[C@]43C)[C@@H]12; βAla = NCCC(=O)O

Assay: Inhibition of HIV1 gp41-induced cell-cell fusion between viral envelope expressing human HL2/3 cells to CD4/CCR5 receptor expressing TZM-bl cells after 6 to 8 hrs by luciferase assay

Row | EC50 [nM] | Compound
1 | 3240 | CC[C@H](C)[C@H](NC(=O)[C@H](CC(C)C)NC(=O)[C@H](CO)NC(=O)[C@H](Cc1cnc[nH]1)NC(=O)[C@@H](NC(=O)[C@H](CC(C)C)NC(=O)[C@H](CO)NC(=O)[C@@H](NC(=O)[C@H](Cc1ccc(O)cc1)NC(=O)[C@H](CC(N)=O)NC(=O)[C@H](CC(N)=O)NC(C)=O)[C@@H](C)O)[C@@H](C)CC)C(=O)N[C@@H](CCC(=O)O)C(=O)N[C@@H](CCC(=O)O)C(=O)N[C@@H](CO)C(=O)N[C@@H](CCC(N)=O)C(=O)N[C@@H](CC(N)=O)C(=O)N[C@@H](CCC(N)=O)C(=O)N[C@@H](CCC(N)=O)C(=O)N[C@@H](CCC(=O)O)C(=O)N[C@@H](CCCCN)C(=O)N[C@@H](CC(N)=O)C(=O)N[C@@H](CCC(=O)O)C(=O)N[C@@H](CCC(N)=O)C(=O)N[C@@H](CCC(=O)O)C(=O)N[C@@H](CC(C)C)C(=O)N[C@@H](CC(C)C)C(N)=O (Ac-NNYTSLIHSLIEESQNQQEKNEQELL-NH2)
2 | 3.3 | C=CCOC(=O)[C@]12CCC(C)(C)C[C@H]1C1=CC[C@@H]3[C@@]4(C)CC[C@H](OC(=O)CCc5cn(CC(=O)NCCCC[C@H](NC(=O)CCNC(=O)[C@H](CC(C)C)NC(=O)[C@H](CC(C)C)NC(=O)[C@H](CCC(=O)O)NC(=O)[C@H](CCC(N)=O)NC(=O)[C@H](CCC(=O)O)NC(=O)[C@H](CC(N)=O)NC(=O)[C@H](CCCCN)NC(=O)[C@H](CCC(=O)O)NC(=O)[C@H](CCC(N)=O)NC(=O)[C@H](CCC(N)=O)NC(=O)[C@H](CC(N)=O)NC(=O)[C@H](CCC(N)=O)NC(=O)[C@H](CO)NC(=O)[C@H](CCC(=O)O)NC(=O)[C@H](CCC(=O)O)NC(=O)[C@@H](NC(=O)[C@H](CC(C)C)NC(=O)[C@H](CO)NC(=O)[C@H](Cc6cnc[nH]6)NC(=O)[C@@H](NC(=O)[C@H](CC(C)C)NC(=O)[C@H](CO)NC(=O)[C@@H](NC(=O)[C@H](Cc6ccc(O)cc6)NC(=O)[C@H](CC(N)=O)NC(=O)[C@H](CC(N)=O)NC(C)=O)[C@@H](C)O)[C@@H](C)CC)[C@@H](C)CC)C(N)=O)nn5)C(C)(C)[C@@H]4CC[C@@]3(C)[C@]1(C)CC2 (Ac-NNYTSLIHSLIEESQNQQEKNEQELL[βAla]K(X2)-NH2)
3 | 44 | C=C(C)[C@@H]1CC[C@]2(C(=O)O)CC[C@]3(C)[C@H](CC[C@@H]4[C@@]5(C)CC[C@H](OC(=O)CCc6cn(CC(=O)NCCCC[C@H](NC(=O)CCNC(=O)[C@H](CC(C)C)NC(=O)[C@H](CC(C)C)NC(=O)[C@H](CCC(=O)O)NC(=O)[C@H](CCC(N)=O)NC(=O)[C@H](CCC(=O)O)NC(=O)[C@H](CC(N)=O)NC(=O)[C@H](CCCCN)NC(=O)[C@H](CCC(=O)O)NC(=O)[C@H](CCC(N)=O)NC(=O)[C@H](CCC(N)=O)NC(=O)[C@H](CC(N)=O)NC(=O)[C@H](CCC(N)=O)NC(=O)[C@H](CO)NC(=O)[C@H](CCC(=O)O)NC(=O)[C@H](CCC(=O)O)NC(=O)[C@@H](NC(=O)[C@H](CC(C)C)NC(=O)[C@H](CO)NC(=O)[C@H](Cc7cnc[nH]7)NC(=O)[C@@H](NC(=O)[C@H](CC(C)C)NC(=O)[C@H](CO)NC(=O)[C@@H](NC(=O)[C@H](Cc7ccc(O)cc7)NC(=O)[C@H](CC(N)=O)NC(=O)[C@H](CC(N)=O)NC(C)=O)[C@@H](C)O)[C@@H](C)CC)[C@@H](C)CC)C(N)=O)nn6)C(C)(C)[C@@H]5CC[C@]43C)[C@@H]12 (Ac-NNYTSLIHSLIEESQNQQEKNEQELL[βAla]K(X3)-NH2)
4 | 20 | C=C(C)[C@@H]1CC[C@]2(C(=O)OCc3cn(CC(=O)NCCCC[C@H](NC(=O)CCNC(=O)[C@H](CC(C)C)NC(=O)[C@H](CC(C)C)NC(=O)[C@H](CCC(=O)O)NC(=O)[C@H](CCC(N)=O)NC(=O)[C@H](CCC(=O)O)NC(=O)[C@H](CC(N)=O)NC(=O)[C@H](CCCCN)NC(=O)[C@H](CCC(=O)O)NC(=O)[C@H](CCC(N)=O)NC(=O)[C@H](CCC(N)=O)NC(=O)[C@H](CC(N)=O)NC(=O)[C@H](CCC(N)=O)NC(=O)[C@H](CO)NC(=O)[C@H](CCC(=O)O)NC(=O)[C@H](CCC(=O)O)NC(=O)[C@@H](NC(=O)[C@H](CC(C)C)NC(=O)[C@H](CO)NC(=O)[C@H](Cc4cnc[nH]4)NC(=O)[C@@H](NC(=O)[C@H](CC(C)C)NC(=O)[C@H](CO)NC(=O)[C@@H](NC(=O)[C@H](Cc4ccc(O)cc4)NC(=O)[C@H](CC(N)=O)NC(=O)[C@H](CC(N)=O)NC(C)=O)[C@@H](C)O)[C@@H](C)CC)[C@@H](C)CC)C(N)=O)nn3)CC[C@]3(C)[C@H](CC[C@@H]4[C@@]5(C)CC[C@H](O)C(C)(C)[C@@H]5CC[C@]43C)[C@@H]12 (Ac-NNYTSLIHSLIEESQNQQEKNEQELL[βAla]K(X4)-NH2)
5 | 7.9 | C=C(C)[C@@H]1CC[C@]2(C(=O)OCc3cn(CC(=O)NCCCC[C@H](NC(=O)CCNC(=O)[C@H](CC(C)C)NC(=O)[C@H](CC(C)C)NC(=O)[C@H](CCC(=O)O)NC(=O)[C@H](CCC(N)=O)NC(=O)[C@H](CCC(=O)O)NC(=O)[C@H](CC(N)=O)NC(=O)[C@H](CCCCN)NC(=O)[C@H](CCC(=O)O)NC(=O)[C@H](CCC(N)=O)NC(=O)[C@H](CCC(N)=O)NC(=O)[C@H](CC(N)=O)NC(=O)[C@H](CCC(N)=O)NC(=O)[C@H](CO)NC(=O)[C@H](CCC(=O)O)NC(=O)[C@H](CCC(=O)O)NC(=O)[C@@H](NC(=O)[C@H](CC(C)C)NC(=O)[C@H](CO)NC(=O)[C@H](Cc4cnc[nH]4)NC(=O)[C@@H](NC(=O)[C@H](CC(C)C)NC(=O)[C@H](CO)NC(=O)[C@@H](NC(=O)[C@H](Cc4ccc(O)cc4)NC(=O)[C@H](CC(N)=O)NC(=O)[C@H](CC(N)=O)NC(C)=O)[C@@H](C)O)[C@@H](C)CC)[C@@H](C)CC)C(N)=O)nn3)CC[C@]3(C)[C@H](CC[C@@H]4[C@@]5(C)CC[C@H](OC(C)=O)C(C)(C)[C@@H]5CC[C@]43C)[C@@H]12 (Ac-NNYTSLIHSLIEESQNQQEKNEQELL[βAla]K(X5)-NH2)
6 | 3.4 | C=CCOC(=O)[C@]12CC[C@@H](C)[C@H](C)[C@H]1C1=CC[C@@H]3[C@@]4(C)CC[C@H](OC(=O)CCc5cn(CC(=O)NCCCC[C@H](NC(=O)CCNC(=O)[C@H](CC(C)C)NC(=O)[C@H](CC(C)C)NC(=O)[C@H](CCC(=O)O)NC(=O)[C@H](CCC(N)=O)NC(=O)[C@H](CCC(=O)O)NC(=O)[C@H](CC(N)=O)NC(=O)[C@H](CCCCN)NC(=O)[C@H](CCC(=O)O)NC(=O)[C@H](CCC(N)=O)NC(=O)[C@H](CCC(N)=O)NC(=O)[C@H](CC(N)=O)NC(=O)[C@H](CCC(N)=O)NC(=O)[C@H](CO)NC(=O)[C@H](CCC(=O)O)NC(=O)[C@H](CCC(=O)O)NC(=O)[C@@H](NC(=O)[C@H](CC(C)C)NC(=O)[C@H](CO)NC(=O)[C@H](Cc6cnc[nH]6)NC(=O)[C@@H](NC(=O)[C@H](CC(C)C)NC(=O)[C@H](CO)NC(=O)[C@@H](NC(=O)[C@H](Cc6ccc(O)cc6)NC(=O)[C@H](CC(N)=O)NC(=O)[C@H](CC(N)=O)NC(C)=O)[C@@H](C)O)[C@@H](C)CC)[C@@H](C)CC)C(N)=O)nn5)C(C)(C)[C@@H]4CC[C@@]3(C)[C@]1(C)CC2 (Ac-NNYTSLIHSLIEESQNQQEKNEQELL[βAla]K(X9)-NH2)

Row | Compound | EC50 [nM]
7 | C=C(C)[C@@H]1CC[C@]2(C(=O)O)CC[C@]3(C)[C@H](CC[C@@H]4[C@@]5(C)CC[C@H](O)C(C)(C)[C@@H]5CC[C@]43C)[C@@H]12 | > 100000
